What was measured:
[1] = molecular target: T1, ATP-binding cassette sub-family C member 2 (Rattus norvegicus, UniProt Q63120); test: TP_TRANSPORTER: inhibition of 5-methyltetrahydrofolate uptake in bile canalicular membrane vesicles from SD rat; type: functional, cell membranes, Sprague-Dawley, Bile canalicular membrane vesicle
[2] = molecular target: T1, ATP-binding cassette sub-family C member 2; test: TP_TRANSPORTER: inhibition of DNP-SG uptake in bile canalicular membrane vesicles from SD rat; type: functional, cell membranes, Sprague-Dawley, Bile canalicular membrane vesicle
[3] = substrate: CN1c2c(nc(N)[nH]c2=O)NC[C@@H]1CNc1ccc(C(=O)N[C@@H](CCC(=O)O)C(=O)O)cc1; test: cells, lysate or membranes named

| Molecule | Ki [2] [µM] | also measured |
| --- | --- | --- |
| N[C@@H](CCC(=O)N[C@H](CSc1ccc([N+](=O)[O-])cc1[N+](=O)[O-])C(=O)NCC(=O)O)C(=O)O |  | Ki [1]: 34.5 µM |
| ATP-binding cassette sub-family C member 2 (Rattus norvegicus) (protein) MDKFCNSTFWDLSLLESPEADLPLCFEQTVLVWIPLGFLWLLAPWQLYSVYRSRTKRSSITKFYLAKQVFVVFLLILAAIDLSLALTEDTGQATVPPVRYTNPILYLCTWLLVLAVQHSRQWCVRKNSWFLSLFWILSVLCGVFQFQTLIRALLKDSKSNMAYSYLFFVSYGFQIVLLILTAFSGPSDSTQTPSVTASFLSSITFSWYDRTVLKGYKHPLTLEDVWDIDEGFKTRSVTSKFEAAMTKDLQKARQAFQRRLQKSQRKPEATLHGLNKKQSQSQDVLVLEEAKKKSEKTTKDYPKSWLIKSLFKTFHVVILKSFILKLIHDLLVFLNPQLLKLLIGFVKSSNSYVWFGYICAILMFAVTLIQSFCLQSYFQHCFVLGMCVRTTVMSSIYKKALTLSNLARKQYTIGETVNLMSVDSQKLMDATNYMQLVWSSVIQITLSIFFLWRELGPSILAGVGVMVLLIPVNGVLATKIRNIQVQNMKNKDKRLKIMNEILSGIKILKYFAWEPSFQEQVQGIRKKELKNLLRFGQLQSLLIFILQITPILVSVVTFSVYVLVDSANVLNAEKAFTSITLFNILRFPLSMLPMVTSSILQASVSVDRLERYLGGDDLDTSAIRRVSNFDKAVKFSEASFTWDPDLEATIQDVNLDIKPGQLVAVVGTVGSGKSSLVSAMLGEMENVHGHITIQGSTAYVPQQSWIQNGTIKDNILFGSEYNEKKYQQVLKACALLPDLEILPGGDMAEIGEKGINLSGGQKQRVSLARAAYQDADIYILDDPLSAVDAHVGKHIFNKVVGPNGLLAGKTRIFVTHGIHFLPQVDEIVVLGKGTILEKGSYRDLLDKKGVFARNWKTFMKHSGPEGEATVNNDSEAEDDDDGLIPTMEEIPEDAASLAMRRENSLRRTLSRSSRSSSRRGKSLKNSLKIKNVNVLKEKEKEVEGQKLIKKEFVETGKVKFSIYLKYLQAVGWWSILFIILFYGLNNVAFIGSNLWLSAWTSDSDNLNGTNNSSSHRDMRIGVFGALGLAQGICLLISTLWSIYACRNASKALHGQLLTNILRAPMRFFDTTPTGRIVNRFSGDISTVDDLLPQTLRSWMMCFFGIAGTLVMICMATPVFAIIIIPLSILYISVQVFYVATSRQLRRLDSVTKSPIYSHFSETVTGLPIIRAFEHQQRFLAWNEKQIDINQKCVFSWITSNRWLAIRLELVGNLVVFCSALLLVIYRKTLTGDVVGFVLSNALNITQTLNWLVRMTSEAETNIVAVERISEYINVENEAPWVTDKRPPADWPRHGEIQFNNYQVRYRPELDLVLKGITCNIKSGEKVGVVGRTGAGKSSLTNCLFRILESAGGQIIIDGIDVASIGLHDLRERLTIIPQDPILFSGSLRMNLDPFNKYSDEEVWRALELAHLRSFVSGLQLGLLSEVTEGGDNLSIGQRQLLCLGRAVLRKSKILVLDEATAAVDLETDSLIQTTIRKEFSQCTVITIAHRLHTIMDSDKIMVLDNGKIVEYGSPEELLSNRGSFYLMAKEAGIENVNHTEL |  | Km [3]: 126 µM |

More lines, main results first:

| Ki [2] [µM] | Molecule | also measured |
| --- | --- | --- |
| 269 | Nc1nc2c(c(=O)[nH]1)N1CN(c3ccc(C(=O)N[C@@H](CCC(=O)O)C(=O)O)cc3)CC1CN2 (stereo not given in full) [FOLITIXORIN] |  |
| 121 | CN1c2c(nc(N)[nH]c2=O)NC[C@@H]1CNc1ccc(C(=O)N[C@@H](CCC(=O)O)C(=O)O)cc1 [LEVOMEFOLIC ACID] |  |
| 358 | Nc1nc2c(c(=O)[nH]1)NC(CNc1ccc(C(=O)N[C@@H](CCC(=O)O)C(=O)O)cc1)CN2 (stereo not given in full) [TETRAHYDROFOLATE] |  |

— ChEMBL document CHEMBL2074384, “Reduced folate derivatives are endogenous substrates for cMOAT in rats” (Am J Physiol, 1998)
